Source: ChEMBL document CHEMBL1147530, “Antimalarial activities of (+)-deoxoartemisitene and its novel C-11, 13 derivatives” (Bioorg Med Chem Lett, 2004)
≈ marks a conversion by molar mass, not a printed value.

Assays:
Plasmodium falciparum [1] = test: In vitro antimalarial activity against chloroquine-sensitive Plasmodium falciparum 3D7; type: functional, organism-based
Plasmodium falciparum [2] = test: In vitro antimalarial activity against chloroquine-resistant Plasmodium falciparum K1; type: functional, organism-based

Structure (SMILES) | IC50 (Plasmodium falciparum [1]) | IC50 (Plasmodium falciparum [2])
C[C@@H]1CC[C@H]2[C@@H](CBr)CO[C@@H]3O[C@]4(C)CC[C@@H]1[C@]32OO4 | 0.01 µg/mL (≈ 0.0288 µM) | 0.003 µg/mL (≈ 0.00864 µM)
CCO[C@H]1O[C@@H]2O[C@@]3(C)CC[C@H]4[C@H](C)CC[C@@H]([C@H]1C)[C@@]24OO3 [ARTEMOTIL] | < 0.0001 µg/mL | < 0.0001 µg/mL
C[C@@H]1CC[C@H]2[C@@H](C)C(=O)O[C@@H]3O[C@@]4(C)CC[C@@H]1[C@]32OO4 [ARTEMISININ] | 0.01 µg/mL (≈ 0.0354 µM) | 0.002 µg/mL (≈ 0.00708 µM)
C[C@@H]1CC[C@H]2[C@@H](COC[C@H]3CO[C@@H]4O[C@]5(C)CC[C@H]6[C@H](C)CC[C@@H]3[C@@]46OO5)CO[C@@H]3O[C@@]4(C)CC[C@@H]1[C@]32OO4 | 0.04 µg/mL (≈ 0.0726 µM) | 0.02 µg/mL (≈ 0.0363 µM)
C[C@@H]1CC[C@@H]2[C@]34OO[C@@](C)(CC[C@@H]13)O[C@H]4OC[C@]2(C)O | 0.07 µg/mL (≈ 0.246 µM) | 0.05 µg/mL (≈ 0.176 µM)
C[C@H]1[C@H](OC(=O)CCC(=O)O)O[C@@H]2O[C@@]3(C)CC[C@H]4[C@H](C)CC[C@@H]1[C@@]24OO3 [ARTESUNATE] | 0.0002 µg/mL (≈ 0.00052 µM) | 0.0006 µg/mL (≈ 0.00156 µM)
C[C@@H]1CC[C@H]2C(=O)CO[C@@H]3O[C@]4(C)CC[C@@H]1[C@]32OO4 | 0.02 µg/mL (≈ 0.0745 µM) | 0.006 µg/mL (≈ 0.0224 µM)
C[C@@H]1CC[C@H]2[C@@H](COS(C)(=O)=O)CO[C@@H]3O[C@]4(C)CC[C@@H]1[C@]32OO4 | 0.09 µg/mL (≈ 0.248 µM) | 0.06 µg/mL (≈ 0.166 µM)
C[C@@H]1CC[C@H]2[C@@H](C(=O)O)CO[C@@H]3O[C@]4(C)CC[C@@H]1[C@]32OO4 | 1.09 µg/mL (≈ 3.65 µM) | 0.65 µg/mL (≈ 2.18 µM)
C[C@@H]1CC[C@H]2[C@@]3(CO[C@@H]4O[C@]5(C)CC[C@@H]1[C@]42OO5)CO3 | 0.03 µg/mL (≈ 0.106 µM) | 0.01 µg/mL (≈ 0.0354 µM)
C[C@@H]1CC[C@H]2[C@H](CBr)CO[C@@H]3O[C@]4(C)CC[C@@H]1[C@]32OO4 | 0.0002 µg/mL (≈ 0.000576 µM) | < 0.0001 µg/mL
C=C1CO[C@@H]2O[C@]3(C)CC[C@H]4[C@H](C)CC[C@@H]1[C@@]24OO3 | 0.02 µg/mL (≈ 0.0751 µM) | 0.02 µg/mL (≈ 0.0751 µM)
C[C@@H]1CC[C@H]2[C@@H](CO)CO[C@@H]3O[C@]4(C)CC[C@@H]1[C@]32OO4 | < 0.0001 µg/mL | 0.0006 µg/mL (≈ 0.00211 µM)
C[C@@H]1CC[C@H]2[C@@H](C=O)CO[C@@H]3O[C@]4(C)CC[C@@H]1[C@]32OO4 | 0.12 µg/mL (≈ 0.425 µM) | 3.01 µg/mL (≈ 10.7 µM)
C[C@@H]1CC[C@H]2[C@H](CO)CO[C@@H]3O[C@]4(C)CC[C@@H]1[C@]32OO4 | 0.06 µg/mL (≈ 0.211 µM) | 0.05 µg/mL (≈ 0.176 µM)
Cc1ccc(S(=O)(=O)OC[C@H]2CO[C@@H]3O[C@]4(C)CC[C@H]5[C@H](C)CC[C@@H]2[C@@]35OO4)cc1 | 0.3 µg/mL (≈ 0.684 µM) | 0.05 µg/mL (≈ 0.114 µM)
C[C@@H]1CC[C@H]2[C@H](C=O)CO[C@@H]3O[C@]4(C)CC[C@@H]1[C@]32OO4 | 2.02 µg/mL (≈ 7.15 µM) | 0.46 µg/mL (≈ 1.63 µM)
